This note sets out measurements from US11241440B2, “Dihydrooxadiazine compounds for treating infections and cancer” (VALORALIA I MÁS D, SL, priority 2016, dated 2022).

This assay concerns M. chelonae. Put plainly: Kirby-Bauer disk diffusion susceptibility test. As to conditions: M. chelonae strain 870, isolation year 2011. It is filed as cell-based. A general note: Agar diffusion results depend on both activity and mobility in agar.

Regarding Penicillin, the “Characteristics of strains: susceptibility or resistance” value is on record as “R”.
